Test results from patent US12478601B2, “Dietary product devoid of at least two non essential amino acids” (CANCER RESEARCH TECHNOLOGY LIMITED, priority 2016, dated 2025).
Entries after “also recorded” stand apart in the source; their conditions may differ. Where a name gives a salt, the structure may show the parent alone. Read-outs that look alike come from different tables or passages of the source.

Columns and labels:
HCT116, DLD1 and SW480 = test: Synergy score screen: chemotherapeutic agents in low serine, glycine, cysteine medium, cell counts
Experimental: Human cell lines HCT116, DLD1 and SW480 were seeded into 96-well plates either in complete medium containing serine, glycine and cysteine at 100 uM, with all other amino acids present, or low serine, glycine, cysteine (17-23 uM) medium with all other amino acids present. After 6 hours the stated chemotherapeutic agents were added (at doses of 0.01, 0.1 and 1 uM) to the wells and cells were incubated for a further 48 hours. After this time cells were formalin fixed and stained with a fluorescent nuclear stain for cell counting on an automated (Operetta) plate reader.

[1] = tested on: intestinal tumour organoids derived from a VillincreER; APCfl/fl mouse; test: Intestinal tumour organoid growth (diameter) +/− serine and glycine, +/− drug; type: cell-based; conditions: two days
Experimental: ADF=Advanced DMEM F/12, with 2 mM glutamine, 1% of penicillin/streptomycin solution, 0.1% of AlbuMAX I BSA, 10 mM HEPES (all Gibco/Life Technologies). Adenomas were removed from the small intestine of mice and cut into smaller pieces and washed 5 times with ice cold PBS. Pieces were incubated in 5 mM EDTA for 10 min at 4° C. on a roller. Crypts were washed 2 times with ice cold PBS to remove EDTA and incubated in 10× trypsin for 30 min at 37° C. The crypt-enriched supernatant was collected and washed approximately 5 times with 5 ml ADF through mechanical pipetting. Crypts were pelleted via centrifugation at 1,200 rpm for 5 min. Crypts were re-suspended in growth factor reduced matrigel (BD Biosciences) and 20 μl was plated per well in a 12-well plate. Matrigel was allowed to solidify for 30 min in a 37° C. incubator before appropriate ADF was added supplemented with 0.05 μg/ml EGF and 0.1 μg/ml noggin (Total volume per well 1 ml). Crypts were split by harvesting in ice cold PBS and spun down at 600 rpm for 3 min. Supernatant was aspirated and the pellet dissociated with 100 μl ice cold PBS using mechanical pipetting. 5 ml of PBS was added to tube and spun own at 600 rpm for 3 min, repeated until supernatant was clear of debris. The final crypt pellet was re-suspended with growth factor reduced matrigel and plated as before. For serine/glycine starvation, amino acid free Advanced DMEM F/12 (Gibco/Life Technologies) was used to construct assay medium for organoids with or without serine and glycine, containing all other amino acids. […]
Organoids were seeded in the stated media with or without metformin/daunorubicin (both from Sigma) and allowed to grow for two days. Images for size quantification (performed using ImageJ software) were taken using a light microscope then organoids were fixed in 4% paraformaldehyde. ROS damage was assessed by immunostaining organoids with Anti-malondialdehyde (MDA) (Abcam, ab6463), with Alexa Fluor 594 secondary antibody (Thermo Fisher Scientific). […]

[2] = tested on: VillincreER; APCfl/fl organoids; test: Organoid malondialdehyde (MDA) immunostaining (ROS damage); type: cell-based, mouse
Experimental: Organoids were seeded in the stated media with or without metformin/daunorubicin (both from Sigma) and allowed to grow for two days. Images for size quantification (performed using ImageJ software) were taken using a light microscope then organoids were fixed in 4% paraformaldehyde. ROS damage was assessed by immunostaining organoids with Anti-malondialdehyde (MDA) (Abcam, ab6463), with Alexa Fluor 594 secondary antibody (Thermo Fisher Scientific). Images were captured on an Olympus FV1000 inverted laser scanning confocal microscope and MDA staining was quantified using ImageJ software.

[3] = tested on: lymphoma (based on Eμ-Myc expression)
Text: (§1) On normal chow, dietary amino acids are derived from whole proteins contained in the raw ingredients (wheat, wheatfeed, barley, de-hulled extracted toasted soya, maize and fish meal), with a small amount of purified lysine added as a supplement. […] “Diet 2-Control” contained all essential amino acids plus serine, glycine, glutamine, arginine, cystine, tyrosine, alanine, proline, glutamate and asparagine; “Diet 2-No Ser, No Gly/Diet 2-SG-free” was the same as Diet 2-Control, but without serine and glycine, with the other amino acid levels increased proportionally to achieve the same total amino acid content. “Diet 2” formulations were used for the Eμ-Myc-Tigar^−/− cohort (FIG. 19, panel f). All other cohorts received the previously published “Diet 1” formulations.
Mus Musculus cohorts were housed in a barriered facility proactive in environmental enrichment. The Eμ-Myc11, ApcMin/+, Lgr5creER; Apcf1/f1 and Pdx1cre; KrasG12D; Trp53f1/+ or Trp53R172H/+ mice/models have been previously described. Mixed male and female populations were used for each genotype. […] Eμ-Myc, and ApcMin/+ mice were at least 20 generations C57BL/6J. Eμ-Myc; Tigarf1/f1 mice were at least 50% C57BL/6J. Mice were put on the appropriate diet at the following times: Eμ-Myc pure bred 60 days post-natal, Eμ-Myc; Tigarf1/f1 55 days post-natal, ApcMin/+80 days post-natal, Lgr5creER; Apcf1/f1 7 days post-induction, Pdx1cre; KrasG12D; Trp53f1/+ or Trp53R172H/+60 days post-natal. […] For the metformin experiment, ApcMin/+ mice were given 200 mg/kg/day in their drinking water, starting 4 days after the diet change. All mice were taken to clinical end-point. […]
Samples were prepared in cold (−20° C.) lysis solvent (LS) consisting of methanol, acetonitrile, and H2O (50:30:20). […] Extracts were analysed on an LCMS platform consisting of an Accela 600 LC system and an Exactive mass spectrometer (Thermo Scientific). […] The raw data was analysed by LCquan (Thermo Scientific) and MZMine 2.10 for metabolite identification and quantification. […]

[4] = tested on: intestinal tumours (APCMin/+)
Text: as §1
Mus Musculus cohorts were housed in a barriered facility proactive in environmental enrichment. The Eμ-Myc11, ApcMin/+, Lgr5creER; Apcf1/f1 and Pdx1cre; KrasG12D; Trp53f1/+ or Trp53R172H/+ mice/models have been previously described. Mixed male and female populations were used for each genotype. […] Eμ-Myc, and ApcMin/+ mice were at least 20 generations C57BL/6J. Eμ-Myc; Tigarf1/f1 mice were at least 50% C57BL/6J. Mice were put on the appropriate diet at the following times: Eμ-Myc pure bred 60 days post-natal, Eμ-Myc; Tigarf1/f1 55 days post-natal, ApcMin/+80 days post-natal, Lgr5creER; Apcf1/f1 7 days post-induction, Pdx1cre; KrasG12D; Trp53f1/+ or Trp53R172H/+60 days post-natal. […] For the metformin experiment, ApcMin/+ mice were given 200 mg/kg/day in their drinking water, starting 4 days after the diet change. All mice were taken to clinical end-point. Intestines from ApcMin/+ mice were fixed in methacarn (4:2:1 ratio of methanol, chloroform, acetic acid) to facilitate scoring of tumour number and area (width×length).
Samples were prepared in cold (−20° C.) lysis solvent (LS) consisting of methanol, acetonitrile, and H2O (50:30:20). […] Tissue samples were snap frozen and stored at −80° C. Prior to lysis, frozen samples were weighed then homogenized in 1 ml cold LS using a Precellys homogeniser (Bertin Technologies). Lysates were cleared of protein by centrifugation and lysate concentrations were normalized post-homogenisation with LS based on weight. Extracts were analysed on an LCMS platform consisting of an Accela 600 LC system and an Exactive mass spectrometer (Thermo Scientific). A SeQuant ZIC-pHILIC column (2.1 mm×150 mm, 5 μm) (Merck) was used to separate the metabolites with the mobile phase mixed by A=Ammonium carbonate 20 mM (adjusted to pH 9.4) and B=Acetonitrile. A gradient program starting at 20% of A and after 2 mins linearly increasing to 80% at 17 min was used followed by washing and re-equilibration steps. The total run time of the method was 25 min. The LC stream was desolvated and ionised in the HESI probe. The Exactive mass spectrometer was operated in full scan mode over a mass range of 75-1,000 m/z at a resolution of 50,000 with polarity switching. The raw data was analysed by LCquan (Thermo Scientific) and MZMine 2.10 for metabolite identification and quantification.
Mus Musculus cohorts were housed in a barrier facility proactive in environmental enrichment. […] Mixed male and female populations were used for each genotype.

DLD1 and SW480 cells = test: Metformin in vitro assay in APC-truncated colorectal cell lines, cell number; type: cell-based, Human; conditions: three days
Experimental: DLD1 and SW480 cells were seeded into 24-well plates and allowed to adhere overnight. Cells were washed with PBS and received either assay medium with or without serine and glycine, with or without metformin at the stated doses and allowed to grow for three days. Representative wells were photographed using a light microscope and counted using a Casy TT cell counter (FIG. 19, panel d). For the dose-response experiment (FIG. 23, panel e) cells were seeded in the same way, either in assay medium without serine and glycine, or in assay medium with low serine and glycine (10 uM), triplicate wells were counted after three days.

[5] = average synergy score for three colorectal cells lines, drug at 0.01, 0.1 and 1 uM for 48 hours, low serine, glycine, cysteine (17-23 uM) vs complete medium (100 uM)

Compound: Cc1cc(Nc2ncc(Cl)c(Nc3ccccc3S(=O)(=O)C(C)C)n2)c(OC(C)C)cc1C1CCNCC1 [Ceritinib]
- SYNERGY SCORE (HCT116, DLD1 and SW480; [5]): 2.56

Compound: N.N.[Cl][Pt][Cl] [Cisplatin]
- SYNERGY SCORE (HCT116, DLD1 and SW480; [5]): 1.79

Compound: O=C(c1cc(Cc2n[nH]c(=O)c3ccccc23)ccc1F)N1CCN(C(=O)C2CC2)CC1 [Olaparib]
- SYNERGY SCORE (HCT116, DLD1 and SW480; [5]): 1.46

Compound: O=C(CCCCCCC(=O)Nc1ccccc1)NO [Vorinostat]
- SYNERGY SCORE (HCT116, DLD1 and SW480; [5]): 4.94

Compound: CO[C@H]1C[C@@H]2CC[C@@H](C)[C@@](O)(O2)C(=O)C(=O)N2CCCC[C@H]2C(=O)O[C@H]([C@H](C)C[C@@H]2CC[C@@H](OC(=O)C(C)(CO)CO)[C@H](OC)C2)CC(=O)[C@H](C)/C=C(\C)[C@@H](O)[C@@H](OC)C(=O)[C@H](C)C[C@H](C)/C=C/C=C/C=C/1C [Temsirolimus]
- SYNERGY SCORE (HCT116, DLD1 and SW480; [5]): 3.90

Compound: COc1cc(Nc2c(C#N)cnc3cc(OCCCN4CCN(C)CC4)c(OC)cc23)c(Cl)cc1Cl [Bosutinib]
- SYNERGY SCORE (HCT116, DLD1 and SW480; [5]): 1.95

Compound: COc1cccc2c1C(=O)c1c(O)c3c(c(O)c1C2=O)C[C@@](O)(C(C)=O)C[C@@H]3O[C@H]1C[C@H](N)[C@H](O)[C@H](C)O1 [Daunorubicin]
- tumour organoid growth ([1]; with serine & glycine starvation): complements serine and glycine starvation; also recorded: decrease tumour organoid growth
- reactive oxygen species levels in tumour-organoids ([2]; with serine & glycine starvation, two days): increase reactive oxygen species levels

Compound: COc1cccc2c1C(=O)c1c(O)c3c(c(O)c1C2=O)C[C@@](O)(C(=O)CO)C[C@@H]3O[C@H]1C[C@H](N)[C@H](O)[C@H](C)O1 [Doxorubicin hydrochloride]
- SYNERGY SCORE (HCT116, DLD1 and SW480; [5]): 1.76

Compound: [H]/N=C(/N)N/C(=N/[H])NCCc1ccccc1 [phenformin]
- tolerability ([3]; 100 mg/kg/day by gavage, mice on normal diet): tolerated
- mice already recruited that did not succumb to toxicity ([3]; 100 mg/kg/day with serine and glycine deficient diet): 7/14
- survival, diet with phenformin compared to serine and glycine free diet alone ([3]; 100 mg/kg/day, not statistically significant): trend for improved survival

Compound: Nc1nc(F)nc2c1ncn2[C@@H]1O[C@H](COP(=O)(O)O)[C@@H](O)[C@@H]1O [Fludarabine phosphate]
- SYNERGY SCORE (HCT116, DLD1 and SW480): 2.76

Compound: CNC(=O)c1cc(Oc2ccc(NC(=O)Nc3ccc(Cl)c(C(F)(F)F)c3)c(F)c2)ccn1 [Regorafenib]
- SYNERGY SCORE (HCT116, DLD1 and SW480; [5]): 2.29

Compound: Cc1ccc(C(=O)Nc2ccc(CN3CCN(C)CC3)c(C(F)(F)F)c2)cc1C#Cc1cnc2cccnn12 [Ponatinib]
- SYNERGY SCORE (HCT116, DLD1 and SW480): 1.00

Compound: CN(C)C/C=C/C(=O)Nc1cc2c(Nc3ccc(F)c(Cl)c3)ncnc2cc1O[C@H]1CCOC1 [Afatinib]
- SYNERGY SCORE (HCT116, DLD1 and SW480; [5]): 1.18

Compound: C/C=C1\NC(=O)[C@H]2CSSCC/C=C/[C@H](CC(=O)N[C@H](C(C)C)C(=O)N2)OC(=O)[C@H](C(C)C)NC1=O [Romidepsin]
- SYNERGY SCORE (HCT116, DLD1 and SW480): 2.03

Compound: CN(C)C(=N)N=C(N)N [Metformin]
- organoid growth, interaction with serine and glycine starvation ([1]; low dose metformin): antagonizes serine and glycine starvation; also recorded: did not have a synergistic effect
- organoid growth, interaction with serine starvation ([1]; metformin 1000 uM): synergise with serine starvation
- metformin levels in serum and tissue ([4]; 200 mg/kg/day in drinking water, LCMS): relatively low; also recorded: too low to potentiate the anti-cancer effect
- average tumour area ([4]; metformin 200 mg/kg/day): without a substantial change in average tumour area
- impact on systemic metabolism (serum glucose and lactate) ([4]; metformin 200 mg/kg/day): minimal impact on systemic metabolism; also recorded: little impact on systemic metabolism
- cell number (DLD1 and SW480 cells; metformin at 20 µM): trend for increased cell number
- synergistic effect with serine/glycine starvation (DLD1 and SW480 cells; metformin at concentrations found in vivo): did not have a synergistic effect
- SYNERGY SCORE (HCT116, DLD1 and SW480; [5]): 7.53
- reactive oxygen species (ROS) levels ([2]; high dose metformin): increase with high dose metformin
- reactive oxygen species (ROS) levels ([2]; low dose metformin): decrease with low dose metformin

Compound: CNC(=O)c1cc(Oc2ccc(NC(=O)Nc3ccc(Cl)c(C(F)(F)F)c3)cc2)ccn1 [Sorafenib]
- SYNERGY SCORE (HCT116, DLD1 and SW480; [5]): 2.26

Compound: CS(=O)(=O)c1ccc(C(=O)Nc2ccc(Cl)c(-c3ccccn3)c2)c(Cl)c1 [Vismodegib]
- SYNERGY SCORE (HCT116, DLD1 and SW480): 1.53

Compound: CC[C@H](Nc1ncnc2[nH]cnc12)c1nc2cccc(F)c2c(=O)n1-c1ccccc1 [Idelalisib]
- SYNERGY SCORE (HCT116, DLD1 and SW480; [5]): 4.05

Compound: Arsenic trioxide
- SYNERGY SCORE (HCT116, DLD1 and SW480): 2.52

Compound: COc1cccc2c1C(=O)c1c(O)c3c(c(O)c1C2=O)C[C@@](O)(C(=O)CO)C[C@@H]3O[C@H]1C[C@H](N)[C@@H](O)[C@H](C)O1 [Epirubicin hydrochloride]
- SYNERGY SCORE (HCT116, DLD1 and SW480; [5]): 1.40

Compound: Nc1cccc2c1CN(C1CCC(=O)NC1=O)C2=O (centres unmarked) [Lenalidomide]
- SYNERGY SCORE (HCT116, DLD1 and SW480; [5]): 1.94

Compound: C=C1C[C@@H]2[C@H](CC[C@]3(C)C(=O)CC[C@@H]23)[C@@]2(C)C=CC(=O)C=C12 [Exemestane]
- SYNERGY SCORE (HCT116, DLD1 and SW480; [5]): 2.14

Compound: CC(C)C[C@H](NC(=O)[C@H](CCc1ccccc1)NC(=O)CN1CCOCC1)C(=O)N[C@@H](Cc1ccccc1)C(=O)N[C@@H](CC(C)C)C(=O)[C@@]1(C)CO1 [Carfilzomib]
- SYNERGY SCORE (HCT116, DLD1 and SW480; [5]): 1.65

Compound: CO[C@H]1C[C@@H]2CC[C@@H](C)[C@@](O)(O2)C(=O)C(=O)N2CCCC[C@H]2C(=O)O[C@H]([C@H](C)C[C@@H]2CC[C@@H](OCCO)[C@H](OC)C2)CC(=O)[C@H](C)/C=C(\C)[C@@H](O)[C@@H](OC)C(=O)[C@H](C)C[C@H](C)/C=C/C=C/C=C/1C [Everolimus]
- SYNERGY SCORE (HCT116, DLD1 and SW480; [5]): 3.33

Compound: COc1cc2nccc(Oc3ccc(NC(=O)C4(C(=O)Nc5ccc(F)cc5)CC4)cc3)c2cc1OC [Cabozantinib]
- SYNERGY SCORE (HCT116, DLD1 and SW480; [5]): 4.51

Compound: CC(C)(C#N)c1cc(Cn2cncn2)cc(C(C)(C)C#N)c1 [Anastrozole]
- SYNERGY SCORE (HCT116, DLD1 and SW480): 1.43
